Source: patent US20220340899A1, “STEREOSELECTIVE PH RESPONSIVE PEPTIDE DENDRIMERS FOR NUCLEIC ACID TRANSFECTION” (UNIVERSITÄT BERN, priority 2019, published 2022)
Bridges are numbered along the chain shown (N, C = ends). Roman numbers before positions name the chains, in order. Side-chain parts run from the residue outwards.

Columns and labels:
[1] = Vesicle leakage (carboxyfluorescein from phosphatidyl choline vesicles); conditions: for fluorescein release from vesicles after adding siRNA to 15 μg/mL reagent: siRNA 100 nM, N/P 10; for fluorescein release from vesicles by free dendrimer: even at 1 μg/mL
Protocol: Vesicle Leakage: Egg yolk phosphatidylcholine (EYPC, Avanti Polar Lipids, Alablaster, USA) thin lipid layer was prepared by evaporating a solution of 100 mg in 4 mL MeOH/CHCl3 (1:1) on a rotary evaporator at room temperature and then in vacuo overnight. The resulting film was hydrated with 4 mL buffer A (50 mM 5(6)-carboxyfluorescein (CF, Sigma Aldrich, Buchs, CH), 10 mM TRIS, 10 mM NaCl, pH 7.4) for 30 min, subjected to freeze-thaw cycles (7 times) and extrusion (15 times) through a polycarbonate membrane (pore size 100 nm). Extra vesicular components were removed by gel filtration (Sephadex G-50) with buffer B (10 mM TRIS, 107 mM NaCl, pH 7.4). Final concentrations: ˜ 2.5 mM EYPC; inside: 50 mM CF, 10 mM TRIS, 10 mM NaCl, pH 7.4 buffer; outside: 10 mM TRIS, 107 mM NaCl, pH 7.4 buffer.
EYPC stock solutions (10 μL) were diluted to 700-792 μL with the buffer B (10 mM TRIS, 107 mM NaCl, pH 7.4) and placed in a fluorescence cuvette, thermostated (25° C.) and gently stirred (final concentration of EYPC 31 μM, 625 μM CF, 10 mM TRIS and 107 mM NaCl). Complexes were formed with siRNA in buffer B (80 μmol, 1.6 μL from a 50 μM Milli-Q water solution in 50 μL buffer) and peptide dendrimers (N/P ratio of 10, 1680 μmol, 12 μL from a 1 mg/mL Milli-Q water solution in 50 μL buffer B) or L2000 (w/w ratio of 2:1, 2.128 μg, 2.128 μL from the 1 mg/mL commercial solution in 50 μL buffer B) and incubated at room temperature for 30 minutes (100 μL, concentration of 800 nM siRNA and 16.8 μM i.e. 120 μg/mL peptide dendrimers or 21.28 μg/mL L2000). CF efflux was monitored on an Agilent Cary Eclipse fluorescence spectrophotometer at λex=492 nm and λem=517 nm as a function of time for 360 s. At t=30 s peptide dendrimers (0.8-12 μL from a 1 mg/mL Milli-Q water stock solution), L2000 (0.8-12 μL from the 1 mg/mL commercial solution) or complexes (100 μL from the complexes solutions described above) were added to the cuvette (final concentration of 0-100 nM siRNA and 0.14-2.1 μM/1-15 μg/mL peptide dendrimers or 1-15 μg/mL L2000). At t=270 s 1.2% Triton X-100 was added to the cuvette (50 μL, 0.07% final concentration). Fluorescence intensities were normalized to fractional emission intensity I(t) using I(t)=(It−I0)/(I∞−I0) where I0 is the intensity before addition of the peptide dendrimer, I∞ is intensity at saturation after lysis by Triton X-100.

[2] = Circular dichroism, secondary structure content; type: physicochemical
Protocol: Circular Dichroism (CD) Spectroscopic Measurements: The CD spectra were recorded using a Jasco J-715 spectrometer equipped with a PFD-350S temperature controller and a PS-150J power supply. All experiments were measured using a Hellma Suprasil R 100-QS 0.1 cm cuvette. Stock solution (1 mg/mL) of peptides dendrimers were freshly prepared in Milli-Q water. For the measurement, the peptides were diluted to a final concentration of 200 μg/mL with PBS buffer (pH=7.4, 10 mM final concentration). For the solvent dependent studies, the peptides were diluted to 200 μg/mL with phosphate buffer (pH=5 or 7.4, 8 mM final concentration) and TFE or ACN (0, 5, 10, 15, 20 or 40%). The range of measurement was 185-260 nm, scan rate was 10 nm/min or 20 nm/min, pitch 0.5 nm, response 16 sec. and band 1.0 nm. The nitrogen flow was kept above 8 L/min. The baseline (solvent) was recorded under the same conditions and subtracted manually. Each sample was subjected to two accumulations. The cuvettes were washed with 1M HCl, mQ-deionized H2O and PBS or PB buffer before each measurement.

Substance	β-sheet content ([2]; pH 7.4, 20% v/v TFE) [%]	β-sheet content ([2]; pH 7.4, water (no TFE)) [%]	fluorescein release from vesicles after adding siRNA to 15 μg/mL reagent [1]	further results
(KL)8(KKL)4(KLL)2KK(C26) [MH06]			entirely blocked fluorescein release from the vesicles	
(RL)8(KRL)4(KLL)2KLLLL [MH44]			at least to the level observed with only 1 μg/mL free dendrimer	
(KL)8(KKL)4(KLL)2KLLLL [MH18]	22	25	at least to the level observed with only 1 μg/mL free dendrimer	α-helix content ([2]; pH 7.4, 20% v/v TFE): 30%
(KL)8(KKL)4(KLL)2KNleNleNleNle [MH40]			reduced it very strongly	
(KL)8(KKL)4(KLL)2KFFF [MH22]			entirely blocked fluorescein release from the vesicles	
(KL)8(KKL)4(KLL)2KK(C16)K(C16) [MH13]	~40	35	reduced it very strongly	

Continued, in another order:

β-sheet content ([2]; pH 7.4, 20% v/v TFE) [%]	β-sheet content ([2]; pH 7.4, water (no TFE)) [%]	Substance	fluorescein release from vesicles after adding siRNA to 15 μg/mL reagent [1]	further results
20	28	(KL)8(KKL)4(KKL)2KLLLL [MH46]		α-helix content ([2]; pH 7.4, water (no TFE)): 16%; fluorescein release from vesicles by free dendrimer [1]: much weaker
~40		(kl)8(kkl)4(kll)2kk(C16)k(C16) [DMH13]	reduced it very strongly	
22	25	(kl)8(kkl)4(kll)2kllll [DMH18]		α-helix content ([2]; pH 7.4, 20% v/v TFE): 30%
	36	(KL)8(KLL)4(KLL)2KLLLL [MH47] (I: H-KLK([Leu-Lys])LLKLLKLLLL-NH2 / II: H-KLK([Leu-Lys])LLKLL / III: H-KLK([Leu-Lys])LL / IV: H-KLK([Leu-Lys])LL; amide I:6-IV:C, I:9-II:C, II:6-III:C; SMILES CC(C)C[C@H](NC(=O)[C@H](CC(C)C)NC(=O)[C@H](CC(C)C)NC(=O)[C@H](CC(C)C)NC(=O)[C@H](CCCCNC(=O)[C@H](CC(C)C)NC(=O)[C@H](CC(C)C)NC(=O)[C@H](CCCCNC(=O)[C@H](CC(C)C)NC(=O)[C@H](CC(C)C)NC(=O)[C@H](CCCCNC(=O)[C@H](CC(C)C)NC(=O)[C@@H](N)CCCCN)NC(=O)[C@H](CC(C)C)NC(=O)[C@@H](N)CCCCN)NC(=O)[C@H](CC(C)C)NC(=O)[C@H](CC(C)C)NC(=O)[C@H](CCCCNC(=O)[C@H](CC(C)C)NC(=O)[C@@H](N)CCCCN)NC(=O)[C@H](CC(C)C)NC(=O)[C@@H](N)CCCCN)NC(=O)[C@H](CC(C)C)NC(=O)[C@H](CC(C)C)NC(=O)[C@H](CCCCNC(=O)[C@H](CC(C)C)NC(=O)[C@H](CC(C)C)NC(=O)[C@H](CCCCNC(=O)[C@H](CC(C)C)NC(=O)[C@@H](N)CCCCN)NC(=O)[C@H](CC(C)C)NC(=O)[C@@H](N)CCCCN)NC(=O)[C@H](CC(C)C)NC(=O)[C@H](CC(C)C)NC(=O)[C@H](CCCCNC(=O)[C@H](CC(C)C)NC(=O)[C@@H](N)CCCCN)NC(=O)[C@H](CC(C)C)NC(=O)[C@@H](N)CCCCN)C(N)=O)		conformation by CD at pH 5.0 ([2]; pH 5.0, with TFE): retained a predominantly β-sheet conformation; α-helix content ([2]; pH 7.4, water (no TFE)): 11%; fluorescein release from vesicles by free dendrimer [1]: much weaker
